The source of these data is US20160030476A1, “Compositions, Methods And Devices For Promoting Wound Healing And Reducing Infection” (IASIS MOLECULAR SCIENCES, priority 2013, published 2016).

Holding throughout (experiment): Therapeutic index (IC50 fibroblasts / MIC90 in broth)
The subject of experiment [1] is multi-drug resistant Pseudomonas aeruginosa (Pseudo). The class given is cell-based.
Experiment [2] deals with multi-drug resistant Klebsiella pneumonia (Kleb). It is filed as cell-based.
Experiment [3] relates to MRSA. It is filed as cell-based, Staphylococcus aureus.
In experiment [4] the test system is multi-drug resistant Acinetobacter baumannii (AcBc). It is filed as cell-based.

In the case of `N[C@@H](CCC(=O)N[C@@H](CS)C(=O)NCC(=O)O)C(=O)O.[Ag]` [GSH-Ag, glutathione silver], the “Pseudo T.I.” value in experiment [1] came to 2.9. In addition, the “Kleb T.I.” value in experiment [2] was 1.4. Also, the “MRSA T.I.” value in experiment [3] is 1.5. Besides, in experiment [4], the “AcBc T.I.” value came out at 2.9.
